# Experimental data as given in patent US9125849B2, “TOMM34 peptides and vaccines including the same” (ONCOTHERAPY SCIENCE, INC., priority 2010, dated 2015).
# Non-standard residues stand in square brackets, D forms with d. No end group written: not given here.
# Columns and labels:
# [1] = tested on: COS7 cells transfected with either full length of TOMM34 or HLA-A*0201; assay: Specific CTL activity against control target cells; format: cell-based, African green monkey; details: control COS7 cells expressing either HLA-A*0201 or TOMM34
# Excerpt: (§1) The cDNA encoding an open reading frame of target genes or HLA-A*0201 was amplified by PCR. The PCR-amplified product was cloned into expression vector. The plasmids were transfected into COS7, which is the target genes and HLA-A*0201-null cell line, using lipofectamine 2000 (Invitrogen) according to the manufacturer's recommended procedures. After 2 days from transfection, the transfected cells were harvested with versene (Invitrogen) and used as the stimulator cells (5×10^4 cells/well) for CTL activity assay.
# (§2) The established CTL line raised against TOMM34-A02-9-30 (SEQ ID NO: 1) peptide was examined for the ability to recognize target cells that express TOMM34 and HLA-A*0201 molecule. COS7 cells transfected with both the full length of TOMM34 and HLA-A*0201 gene (a specific model for the target cells that express TOMM34 and HLA-A*0201 gene) were prepared as stimulator cells, and COS7 cells transfected with either full length of TOMM34 or HLA-A*0201 were used as the controls.
# [2] = tested on: COS7 cells transfected with both TOMM34 and HLA-A*0201; assay: Specific CTL activity against target cells expressing TOMM34 and HLA-A*0201; format: cell-based, African green monkey; details: COS7 cells expressing both TOMM34 and HLA-A*0201; listed as TOMM34-A02-9-30
# Excerpt: as §1, §2
# [3] = tested on: peptide-pulsed T2 cells; assay: CTL line activity, IFN-gamma ELISA; format: cell-based, human; details: CTL line stimulated with peptide; target cells pulsed with peptide vs without peptide pulse
# Protocol: CTLs were expanded in culture using the method similar to the one described by Riddell et al. (Walter E A et al., N Engl J Med 1995 Oct. 19, 333(16): 1038-44; Riddell S R et al., Nat Med 1996 February, 2(2): 216-23). A total of 5×10^4 CTLs were suspended in 25 ml of AIM-V/5% AS medium with 2 kinds of human B-lymphoblastoid cell lines, inactivated by Mitomycin C, in the presence of 40 ng/ml of anti-CD3 monoclonal antibody (Pharmingen). One day after initiating the cultures, 120 IU/ml of IL-2 were added to the cultures. The cultures were fed with fresh AIM-V/5% AS medium containing 30 IU/ml of IL-2 on days 5, 8 and 11 (Tanaka H et al., Br J Cancer 2001 Jan. 5, 84(1): 94-9; Umano Y et al., Br J Cancer 2001 Apr. 20, 84(8): 1052-7; Uchida N et al., Clin Cancer Res 2004 Dec. 15, 10(24): 8577-86; Suda T et al., Cancer Sci 2006 May, 97(5): 411-9; Watanabe T et al., Cancer Sci 2005 August, 96(8): 498-506).
# (§3) Peptide-pulsed T2 (1×10^4/well) was prepared as stimulator cells. Cultured cells in 48 wells were used as responder cells. IFN-gamma ELISPOT assay and IFN-gamma ELISA assay were performed under manufacture procedure.
# [4] = tested on: peptide-pulsed T2 cells; assay: In vitro CTL induction, IFN-gamma ELISPOT assay; format: cell-based, human; details: CTLs induced with peptide-pulsed DCs from HLA-A*0201 positive donor, vs target cells not pulsed with peptide
# Excerpt: Monocyte-derived dendritic cells (DCs) were used as antigen-presenting cells to induce cytotoxic T lymphocyte (CTL) responses against peptides presented on human leukocyte antigen (HLA). DCs were generated in vitro as described elsewhere (Nakahara S et al., Cancer Res 2003 Jul. 15, 63(14): 4112-8). Specifically, peripheral blood mononuclear cells isolated from a normal volunteer (HLA-A*0201 positive) by Ficoll-Paque plus (Pharmacia) solution were separated by adherence to a plastic tissue culture dish (Becton Dickinson) so as to enrich them as the monocyte fraction. The monocyte-enriched population was cultured in the presence of 1000 U/ml of granulocyte-macrophage colony-stimulating factor (R&D System) and 1000 U/ml of interleukin (IL)-4 (R&D System) in AIM-V Medium (Invitrogen) containing 2% heat-inactivated autologous serum (AS). After 7 days of culture, the cytokine-induced DCs were pulsed with 20 micro-g/ml of each of the synthesized peptides in the presence of 3 micro-g/ml of beta 2-microglobulin for 3 hr at 37 degrees C. in AIM-V Medium. The generated cells appeared to express DC-associated molecules, such as CD80, CD83, CD86 and HLA class II, on their cell surfaces (data not shown). These peptide-pulsed DCs were then inactivated by X ray-irradiated (20 Gy) and mixed at a 1:20 ratio with autologous CD8+ T cells, obtained by positive selection with CD8 Positive Isolation Kit (Dynal). These cultures were set up in 48-well plates (Corning); each well contained 1.5×10^4 peptide-pulsed DCs, 3×10^5 CD8+ T cells and 10 ng/ml of IL-7 (R&D System) in 0.5 ml of AIM-V/2% AS medium. Three days later, these cultures were supplemented with IL-2 (CHIRON) to a final concentration of 20 IU/ml. On day 7 and 14, the T cells were further stimulated with the autologous peptide-pulsed DCs. The DCs were prepared each time by the same way described above. CTL was tested against peptide-pulsed T2 cells after the 3rd round of peptide stimulation on day 21 (Tanaka H et al., Br J Cancer 2001 Jan. 5, 84(1): 94-9; Umano Y et al., Br J Cancer 2001 Apr. 20, 84(8): 1052-7; Uchida N et al., Clin Cancer Res 2004 Dec. 15, 10(24): 8577-86; Suda T et al., Cancer Sci 2006 May, 97(5): 411-9; Watanabe T et al., Cancer Sci 2005 August, 96(8): 498-506).
# as §3
# [5] = tested on: peptide-pulsed T2 cells; assay: CTL clone activity, IFN-gamma ELISA; format: cell-based, human; details: CTL clone established by limiting dilution from the CTL line; target cells pulsed with peptide; listed as TOMM34-A02-9-30
# Protocol: The dilutions were made to have 0.3, 1, and 3 CTLs/well in 96 round-bottomed micro titer plate (Nalge Nunc International). CTLs were cultured with 1×10^4 cells/well of 2 kinds of human B-lymphoblastoid cell lines, 30 ng/ml of anti-CD3 antibody, and 125 U/ml of IL-2 in a total of […] of AIM-V Medium containing 5% AS. 50 micro-1/well of IL-2 were added to the medium 10 days later so to reach a final concentration of 125 U/ml IL-2. CTL activity was tested on the 14th day, and CTL clones were expanded using the same method as described above (Uchida N et al., Clin Cancer Res 2004 Dec. 15, 10(24): 8577-86; Suda T et al., Cancer Sci 2006 May, 97(5): 411-9; Watanabe T et al., Cancer Sci 2005 August, 96(8): 498-506).
# as §3
substance,measurement,setting,value
ALYGRALRV [SEQ ID NO: 1],specific CTL activity of the CTL line,[1],no significant specific CTL activity was detected
same,specific CTL activity of the CTL line,[2],potent CTL activity
same,IFN-gamma production of the CTL line by IFN-gamma ELISA,[3],potent IFN-gamma production
same,peptide specific CTL activity (IFN-gamma production) by IFN-gamma ELISPOT,[4],potent IFN-gamma production
same,IFN-gamma production of the CTL clone by IFN-gamma ELISA,[5],potent IFN-gamma production
ALYGrALRVL (ALYG[code r]ALRVL; not fully specified; printed as ALYGrALRVL) [SEQ ID NO: 31],peptide specific CTL activity (IFN-gamma production) by IFN-gamma ELISPOT,[4],potent IFN-gamma production
LLCSNLESA [SEQ ID NO: 5],peptide specific CTL activity (IFN-gamma production) by IFN-gamma ELISPOT,[4],potent IFN-gamma production
LLCSnLESAT (LLCS[code n]LESAT; not fully specified; printed as LLCSnLESAT) [SEQ ID NO: 32],peptide specific CTL activity (IFN-gamma production) by IFN-gamma ELISPOT,[4],potent IFN-gamma production
KLPSiPLVPV (KLPS[code i]PLVPV; not fully specified; printed as KLPSiPLVPV) [SEQ ID NO: 21],peptide specific CTL activity (IFN-gamma production) by IFN-gamma ELISPOT,[4]; listed as TOMM34-A02-10-143,specific IFN-gamma production was not observed
